{"source": "paper PMC11361645", "about": "“Characterization of the small Arabidopsis thaliana GTPase and ADP-ribosylation factor-like 2 protein TITAN 5” (Journal of Cell Science, 2024)", "format_in_all_cases": "binding", "key": {"[1]": {"biological_target": "T1, TTN5 (TITAN 5) (Arabidopsis thaliana, UniProt Q9ZPX1)", "T1 construct": "gene ARL2", "T1 sequence (Q9ZPX1 1-185 limits assumed)": "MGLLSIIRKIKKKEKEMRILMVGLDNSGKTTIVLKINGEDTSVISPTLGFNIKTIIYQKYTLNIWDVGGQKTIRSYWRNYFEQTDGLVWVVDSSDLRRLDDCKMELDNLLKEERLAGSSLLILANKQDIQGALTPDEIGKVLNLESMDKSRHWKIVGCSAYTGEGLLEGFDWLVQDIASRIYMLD", "experiment": "pull-down of GST-TTN5, bound nucleotide by HPLC", "settings": "GST fusion; excess free GppNHp; single experiment"}, "[2]": {"biological_target": "T2, TTN5 (TITAN 5) (Arabidopsis thaliana, UniProt Q9ZPX1, Q70L)", "T2 construct": "gene ARL2", "T2 sequence (Q9ZPX1 1-185 Q70L limits assumed)": "T1 sequence (Q9ZPX1 1-185 limits assumed) with Q70L", "experiment": "stopped-flow fluorimetry, koff/kon"}, "[3]": {"biological_target": "T1, TTN5 (TITAN 5)", "experiment": "stopped-flow fluorimetry, koff/kon"}, "[4]": {"biological_target": "T3, TTN5 (TITAN 5) (Arabidopsis thaliana, UniProt Q9ZPX1, T30N)", "T3 construct": "gene ARL2", "T3 sequence (Q9ZPX1 1-185 T30N limits assumed)": "T1 sequence (Q9ZPX1 1-185 limits assumed) with T30N", "experiment": "stopped-flow fluorimetry, koff/kon"}}, "note": "Substitutions are numbered along the chain they refer to."}
{"smiles": "Nc1nc2c(ncn2[C@@H]2O[C@H](COP(=O)(O)OP(=O)(O)NP(=O)(O)O)[C@@H](O)[C@H]2O)c(=O)[nH]1", "note": "[GppNHp]", "values": [{"measurement": "pull-down of GST-TTN5, bound nucleotide by HPLC", "setting": "[1]", "value": "Isolated GST–TTN5 bound to increasing amounts of GppNHp"}]}
{"smiles": "CNc1ccccc1C(=O)O[C@H]1C[C@H](n2cnc3c(=O)[nH]c(N)nc32)O[C@@H]1COP(=O)(O)OP(=O)(O)O", "note": "[mdGDP, 2-deoxy-3-O-N-methylanthraniloyl GDP]", "values": [{"measurement": "Kd", "setting": "[2]", "value": 61, "unit": "nM"}, {"measurement": "Kd", "setting": "[3]", "value": 267, "unit": "nM"}, {"measurement": "Kd", "setting": "[4]", "value": 3090, "unit": "nM"}]}
